Measurements reported in patent US20260146232A1, “METHODS FOR PROMOTING HOMING AND ENGRAFTMENT OF HEMATOPOIETIC STEM CELLS” (The Trustees of Indiana University, priority 2022, published 2026).

Experiments:
human CB CD34+ cells [1] = assay: Chemotaxis (transwell migration) assay toward SDF-1, CB CD34+ cells; assay type: cell-based; settings: for chemotaxis of human CB CD34+ cells toward SDF-1: 20 h
Method: (§1) Chemotaxis assay. Chemotaxis assays were performed in Costar 24-well trans-well plates with 6.5 mm diameter inserts with 5.0 μm pores (Corning, NY, USA). Briefly, 650 μL of IMDM medium (37° C.) that contained 0.5% bovine serum albumin (Sigma-Aldrich) and SDF-1 (0, 50 ng/mL) was added to the bottom well. Cells were suspended at 1×10^5 cells/100 μL in IMDM medium and loaded to the upper chamber of the trans-well. Trans-well plates were placed in a 37° C. incubator with 95% humidity and 5% CO2 for 4 hours. Percent migration was measured using flow cytometry with number of cells in the bottom chamber divided by number of cells placed in the upper chamber. To calculate the percent migration of CB HSCs, phenotypic HSCs was determined by surface staining and flow cytometry analysis. Human CB HSC chemotaxis was calculated as number of HSCs in the bottom chamber divided by number of HSCs loaded in the upper chamber. For AMD3100 administration, cells were treated with 5 μg/mL AMD3100 (239820, Sigma-Aldrich) for 30 min right before the chemotaxis assay.

CXCR4 = assay: Surface CXCR4 protein level (MFI) by flow cytometry; assay type: cell-based, human; settings: for effect of FTO inhibitor on AGII-induced CXCR4 upregulation: AGII-treated cells plus FTO inhibitor; for CXCR4 expression (MFI of cell surface CXCR4 protein level): human CB CD34+ cells treated 20 h, screen 10 μM unless otherwise stated; for effect of inhibition of mir-145 (sh-mir-145) on compound-induced CXCR4 expression: human CB CD34+ cells treated with compound and sh-mir-145
Source text: (§2) Human CD34^+ CB cell collection and culture. Umbilical CB units were supplied by Cleveland Cord Blood Bank and CordUse, Orlando, FL, USA. All studies were approved by the institutional review board of the IUSM. Mononuclear cells were isolated by density gradient centrifugation and CD34^+ cells were isolated by immunomagnetic selection kit (Miltenyi Biotec, 130-046-702). […] For molecular compound treatment, all reagents were ordered from Cayman Chemical (Ann Arbor, MI, USA). Briefly, molecular compounds were added in the initiation of human CB CD34^+ cells culture, the time and concentration of each molecular compound for cell treatment was shown in figure legends.
Flow cytometry. Fresh or cultured CB cells were sorted for different phenotypes by using the following antibodies. Antibodies were used to detect CD34 (BV786, BD Biosciences, 744741), CD34 (FITC, BD Biosciences, 340668), CD45RA (Taxe-red, BD Biosciences, 562298), CD90 (BV421, BD Biosciences, 562556), CD49f (cy5.5, BD Biosciences, 562495), CD38 (PE, BD Biosciences, 560981). CD3 (BV421, BD Biosciences, 562427), CD33 (PE, BD Biosciences, 555450), CD19 (PE, BD Biosciences, 555413), CXCR4 (APC, BD Biosciences, 555976) and CD45 (APC, BD Biosciences, 555485). Gating strategy of phenotypic HSCs were shown in supplementary FIG. 2B.

YTHDF2 = assay: Relative YTHDF2 expression level in human CB CD34+ cells; assay type: cell-based; settings: human CB CD34+ cells treated 20 hours
Source text: as §2
RNA extraction and real-time PCR. After cells were harvested by FACS, RNA was extracted by a RNeasy Mini Kit following manufacturer's protocol (Qiagen, 74106). Total RNA was reverse-transcribed by use of Superscript III kit (ThermoFisher, 18080093). Quantitative real-time PCR reactions were performed by SYBR Green PCR Master Mix (Thermo Fisher, Florence, KY, USA) and an Agilent Mx3000P QPCR System. Expression of housekeeping gene GAPDH was used as an internal control. Data are shown as relative mRNA level normalized to levels in vehicle control, set to 1.

mir-145 = assay: Relative mir-145 expression level in human CB CD34+ cells; assay type: cell-based; settings: human CB CD34+ cells treated 20 hours
Source text: Human CD34^+ CB cell collection and culture. Umbilical CB units were supplied by Cleveland Cord Blood Bank and CordUse, Orlando, FL, USA. All studies were approved by the institutional review board of the IUSM. Mononuclear cells were isolated by density gradient centrifugation and CD34^+ cells were isolated by immunomagnetic selection kit (Miltenyi Biotec, 130-046-702). […] For molecular compound treatment, all reagents were ordered from Cayman Chemical (Ann Arbor, MI, USA). Briefly, molecular compounds were added in the initiation of human CB CD34^+ cells culture, the time and concentration of each molecular compound for cell treatment was shown in figure legends. RNA extraction and real-time PCR. After cells were harvested by FACS, RNA was extracted by a RNeasy Mini Kit following manufacturer's protocol (Qiagen, 74106). Total RNA was reverse-transcribed by use of Superscript III kit (ThermoFisher, 18080093). Quantitative real-time PCR reactions were performed by SYBR Green PCR Master Mix (Thermo Fisher, Florence, KY, USA) and an Agilent Mx3000P QPCR System. Expression of housekeeping gene GAPDH was used as an internal control. Data are shown as relative mRNA level normalized to levels in vehicle control, set to 1.

[2] = test system: phenotypic HSC (CD34+ CD38- CD45RA- CD90+ CD49f+); assay: Chemotaxis (transwell migration) assay toward SDF-1, phenotypic HSCs; assay type: cell-based, human; settings: 20 h
Method: as §1

CB CD34+ cells = assay: Colony-forming unit (CFU) assay; assay type: cell-based, human; settings: 20 h
human CB CD34+ cells [3] = assay: Long-term engraftment / limiting dilution analysis (LDA) in NSG mice; assay type: in vivo; settings: for engraftment in NSG mice vs vehicle control (human CD45+ cells in BM): 20 h, 4 months after transplantation; for human myeloid and B-cell chimerism in BM: 10,000 CB CD34+ cells; for engraftment in secondary recipients vs vehicle: secondary NSG mice at 4 months; for SRC frequency (Poisson distribution analysis): vehicle 1/4761
Method: Limiting dilution analysis (LDA). Frequency of human SCID repopulating cells (SRCs) was determined by LDA as reported before. Increasing doses of GFP overexpressing CD34^+ cells (2500, 5000 or 10000 cells) were intravenously injected into sublethally irradiated NSG recipient mice (350 cGy; 137Cs source, single dose). Four months after transplantation, the percentage of GFP^+ human CD45^+ cell chimerism was analyzed by immunostaining and flow cytometry. For long-term engraftment assays that assess the self-renewal capacity of HSC, 3×10^6 BM cells from primary recipients of the 10000-cell group were intravenously transplanted into secondary sub-lethally irradiated NSG recipient mice.

human CB CD34+ cells [4] = assay: Homing assay of treated human CB CD34+ cells in NSG mice; assay type: in vivo; settings: Raloxifene 40 μM, 20 h; 500,000 cells; 24 h after transplantation
Method: Homing assay. Homing of human CB CD34^+ cells was evaluated in NSG mice. Molecular compounds treated or siRNA transfected human CB CD34+ cells (500,000 for each mouse) were intravenously injected into sub-lethally irradiated (350 cGy) NSG mice. After 24 h, these recipient mice were sacrificed, BM cells from each mouse were collected. Cells were stained with anti-human CD45 antibody, then resuspended in 1% formaldehyde buffer. Flow cytometry analysis was performed to determine the percentage of human CD45^+ cells. BM cells from non-transplanted NSG mice served as negative controls.

c1cc(CN2CCCNCCNCCCNCC2)ccc1CN1CCCNCCNCCCNCC1 [AMD3100]
blocking of Raloxifene- and Imatinib-enhanced chemotaxis toward SDF-1 (human CB CD34+ cells [1]; 5 μg/mL AMD3100 for 30 min before the chemotaxis assay): fully blocked
blocking of AGII-enhanced migration toward SDF-1 (human CB CD34+ cells [1]; AMD3100 5 μg/mL for 30 min before assay, AGII-treated cells): blocked
blocking of chemotaxis of human CB CD34+ cells to SDF-1 (human CB CD34+ cells [1]; AMD3100, Control or si-YTHDF2 transfected cells): blocked

Cc1noc(C)c1-c1cc(Cl)c(Nc2ccccc2C(=O)NO)c(Cl)c1 [FB23-2]
effect of FTO inhibitor on AGII-induced CXCR4 upregulation (CXCR4): repressed

CC#CCC(C)[C@H](O)/C=C/[C@@H]1[C@H]2C/C(=C/CCCC(=O)O)C[C@H]2C[C@H]1O (some centres unmarked) [Iloprost]
CXCR4 expression (MFI of cell surface CXCR4 protein level) (CXCR4): strongly upregulated
effect of inhibition of mir-145 (sh-mir-145) on compound-induced CXCR4 expression (CXCR4): did not affect
YTHDF2 expression (YTHDF2): downregulated
mir-145 expression (mir-145): strongly upregulated

Cc1ccc(NC(=O)c2ccc(CN3CCN(C)CC3)cc2)cc1Nc1nccc(-c2cccnc2)n1 [Imatinib]
chemotaxis of human CB CD34+ cells toward SDF-1 (human CB CD34+ cells [1]; Imatinib 10 μM): significantly enhanced
migration to SDF-1 in phenotypic HSC population ([2]; Imatinib 10 μM): Enhanced migration
colony output vs control group (CB CD34+ cells; Imatinib 10 μM): no significant difference
engraftment in NSG mice vs vehicle control (human CD45+ cells in BM) (human CB CD34+ cells [3]; Imatinib 10 μM): significantly elevated
human myeloid and B-cell chimerism in BM (human CB CD34+ cells [3]; Imatinib-treated cells): increased
engraftment in secondary recipients vs vehicle (human CB CD34+ cells [3]; Imatinib-treated cells): Enhanced engraftment
SRC frequency (Poisson distribution analysis) (human CB CD34+ cells [3]; Imatinib-treated cells): 1/1406

Cc1ccc(Cl)c(Nc2ccccc2C(=O)O)c1Cl [Meclofenamic Acid]
effect of FTO inhibitor on AGII-induced CXCR4 upregulation (CXCR4): repressed

C[C@@H]1C[C@H]2[C@@H]3CCC4=CC(=O)C=C[C@]4(C)[C@@]3(Cl)[C@@H](O)C[C@]2(C)[C@@]1(O)C(=O)CCl [Mometasone]
CXCR4 expression (MFI of cell surface CXCR4 protein level) (CXCR4): strongly upregulated
effect of inhibition of mir-145 (sh-mir-145) on compound-induced CXCR4 expression (CXCR4): did not affect
YTHDF2 expression (YTHDF2): downregulated
mir-145 expression (mir-145): strongly upregulated

O=C(c1ccc(OCCN2CCCCC2)cc1)c1c(-c2ccc(O)cc2)sc2cc(O)ccc12 [Raloxifene]
CXCR4 expression (MFI of cell surface CXCR4 protein level) (CXCR4): strongly upregulated
effect of inhibition of mir-145 (sh-mir-145) on compound-induced CXCR4 expression (CXCR4): significantly blocked
YTHDF2 expression (YTHDF2): downregulated
mir-145 expression (mir-145): strongly upregulated
chemotaxis of human CB CD34+ cells toward SDF-1 (human CB CD34+ cells [1]; Raloxifene 40 μM): significantly enhanced
migration to SDF-1 in phenotypic HSC population ([2]; Raloxifene 40 μM): Enhanced migration
homing efficiency (human CD45+ cells in BM) (human CB CD34+ cells [4]): dramatically increased
colony output vs control group (CB CD34+ cells; Raloxifene 40 μM): no significant difference
engraftment in NSG mice vs vehicle control (human CD45+ cells in BM) (human CB CD34+ cells [3]; Raloxifene 40 μM): significantly elevated
human myeloid and B-cell chimerism in BM (human CB CD34+ cells [3]; Raloxifene-treated cells): increased
engraftment in secondary recipients vs vehicle (human CB CD34+ cells [3]; Raloxifene-treated cells): Enhanced engraftment
SRC frequency (Poisson distribution analysis) (human CB CD34+ cells [3]; Raloxifene-treated cells): 1/1818
